{
  "source": "patent US20090215826A1",
  "about": "“SOLID FORMS OF A PYRROLIDINE-3,4-DICARBOXAMIDE DERIVATIVE” (priority 2007, published 2009)",
  "experiment": "Storage stability of crystalline form B (HPLC, IR, XRPD)",
  "type": "physicochemical",
  "conditions": "storage for 1 year up to 40° C./75% rh",
  "description": "“IR” is used herein as an acronym of Infra Red spectroscopy. IR spectra were recorded as film of a Nujol suspension of approximately 5 mg of sample and few Nujol between two sodium chloride plates, with an FTIR spectrometer in transmittance. The Spectrometer is a Nicolet™ 20SXB or equivalent (resolution 2 cm^−1, 32 or more coadded scans, MCT detector).\n“XRPD (is used herein as an acronym of X-Ray Powder Diffraction)” X-ray diffraction patterns were recorded at ambient conditions in transmission geometry with a STOE STADIP diffractometer (Cu Kα radiation, primary monochromator, position sensitive detector, angular range 3° to 42° 2 Theta, approximately 60 minutes total measurement time). The samples were prepared and analyzed without further processing (e.g. grinding or sieving) of the substance. “TGA (is used herein as an acronym of ThermoGravimetric Analysis)” was performed on a Mettler-Toledo™ thermogravimetric analyzer (TGA850 or TGA851). System suitability tests and calibrations were carried out according to the internal standard operation procedure.\nThe Form B has been characterized with IR and XRPD. The chemical stability was measured by HPLC (high performance liquid chromatography).",
  "data": [
    {"smiles": "O=C(Nc1ccc(Cl)cn1)[C@H]1CN(CC(F)F)C[C@@H]1C(=O)Nc1ccc(-n2ccccc2=O)cc1F", "note": "[Form B, (3R,4R)-1-(2,2-Difluoroethyl)-pyrrolidine-3,4-dicarboxylic acid 3-[(5-chloro-pyridin-2-yl)-amide] 4-{[2-fluoro-4-(2-oxo-2H-pyridin-1-yl)-phenyl]-amide}]", "values": [
      {"measurement": "chemical stability (degradation) measured by HPLC", "result": "No significant degradation"},
      {"measurement": "crystal form compared to the initial analysis (IR and XRPD)", "result": "has not been changed"}
    ]}
  ]
}
